# Laboratory results reported in PubChem BioAssay AID1508591.
# Conditions: rat; liver microsomes; pH 7.4; 15.0 min; 1.0 µM
row,half-life,SMILES
1,2.74 min,FC(F)(F)c1ccccc1-c1nc(NCc2ccccc2)c2ccccc2n1
2,> 30 min,NC(=O)c1ccc(-c2nc3c([nH]2)CN(C(=O)CN2CCOCC2)CC3)cc1
3,1.6 min,CCOc1ccc(CCNC(=O)c2cc3sccc3n2CCN2CCOCC2)cc1OCC
4,> 30 min,O=C(Nc1ncc(Cc2ccc(C(F)(F)F)cc2)s1)c1ncc(-c2ccccc2)[nH]1
5,> 30 min,CC(=O)c1c(C)[nH]c(C(=O)Nc2ccc(OCCCN(C)C)c(S(=O)(=O)Nc3ccc(Br)cc3)c2)c1C
6,> 30 min,CCNC(=O)Nc1ncc(-c2cc(-c3c(C)cc(OC)cc3C)nc(-c3cnccn3)n2)s1
7,10.8 min,O=C(Nc1nnc(-c2ccco2)o1)c1ccc(Cl)cc1
8,8.63 min,Nc1cc2nc3ccccc3oc-2cc1=O
9,4.06 min,CCCCN(CC)CCCNC(=O)c1ccc2c(c1)N(Cc1ccc(C)cc1)C(=O)c1ccccc1S2
10,2.07 min,CNc1nc2c(s1)C(c1ccc(Cl)cc1)CC(=O)N2 (configuration not stated)
11,16 min,O=C1Nc2ccccc2/C1=C\c1ccc(O)c(Cl)c1
12,2.7 min,O=C1CCCC2=C1C1(CCCC1)N=C(Nc1nc3ccccc3o1)N2
13,10.9 min,Nc1ncnc2c1c(-c1ccc(Oc3ccccc3)cc1)cn2C1CCCC1
14,> 30 min,O=C1Nc2ccc(Cl)cc2/C1=C\c1cc(Cl)c(O)c(Cl)c1
15,> 30 min,Cc1nn(-c2ccccc2)c2nc(C3CC3)cc(C(=O)Nc3ccc(F)cc3)c12
16,> 30 min,O=C(NC1CCCc2c1cnn2-c1ccc(F)cc1F)c1ccccc1 (configuration not stated)
17,> 30 min,O=C(O)c1ccc(-c2c[nH]c3ncc(-c4ccccc4)cc23)cc1C1CCCC1
18,1.67 min,CN(C)c1cccc(-c2ccnc(N3CCC(C(N)=O)CC3)n2)c1
19,26 min,Fc1ccc(Nc2nc(-c3ccnc(N4CCCCC4)c3)nc3ccccc23)cc1F
20,15.7 min,Cn1ccc2c(C(=O)NCc3cccnc3)nc(-c3ccc(CO)cc3)cc21
21,3.71 min,COC(=O)CNC(=O)c1nc(-c2ccc(Cl)cc2Cl)c2cnccn12
22,7.84 min,Cn1cc(Cl)c(C2N=C(Nc3nc4ccccc4o3)NC3=C2C(=O)CCC3)n1 (configuration not stated)
23,2.5 min,Cc1cc(-c2nnc3n2CCCCC3)c(C)n1-c1ccc([N+](=O)[O-])cc1
24,> 30 min,COc1ccc(-c2ccc3nc(-c4cc(C)cc(C)c4)oc3c2)c(OC)c1OC
25,1.6 min,CC(C)(C)OC(=O)N[C@@H](Cc1ccc(O[S+](=O)([O-])c2cccc3cnccc23)cc1)C(=O)N1CCN(Cc2ccccc2)CC1

row,half-life,SMILES
1,5.28 min,CCCc1nnc(NC(=O)c2nc(S(=O)(=O)Cc3ccc(C)cc3)ncc2Cl)s1
2,> 30 min,COc1ccccc1-c1cc2c(ccn2C)c(C(=O)NCC2CCN(C)C(=O)C2)n1 (configuration not stated)
3,9.99 min,COC(=O)Nc1nc2ccc(SC(C)C)cc2[nH]1
4,1.56 min,Cc1ccc2c(c1)N(S(=O)(=O)c1cc(-c3onc(C)c3C)ccc1C)CCO2
5,14.1 min,Cc1ccc(NC(=O)NCC2CCN(Cc3cccc(Cl)c3)CC2)cc1Cl
6,13 min,Fc1cc(Nc2nc(-c3ccncc3)nc3ccccc23)ccc1-c1ccncc1
7,> 30 min,N#Cc1ccc(NS(=O)(=O)c2ccc(NC(=O)Cc3ccc(Cl)c(Cl)c3)cc2)cc1
8,> 30 min,CN1CCN(c2ccc(-c3cccc(CN4CCOCC4)c3)cc2NC(=O)c2c[nH]c(=O)cc2C(F)(F)F)CC1
9,2.1 min,Cc1ccc(S(=O)(=O)NCC(=O)Nc2nc(-c3ccccc3)cs2)cc1
10,16.7 min,O=C(Nc1ccc(F)cc1F)c1cc(-c2ccc[nH]2)n[nH]1
11,7.59 min,N#Cc1c(NC(=O)c2cccc3ccccc23)sc2c1CCCC2
12,> 30 min,O=C(c1ccc(-c2ncc3cnc(-c4ccccc4)cn23)cc1)N1CCS(=O)(=O)CC1
13,23 min,Cc1ccc(S(=O)(=O)Nc2cccc(C(=O)Nc3nc(-c4ccc(Cl)cc4)cs3)c2)cc1
14,7.79 min,Cc1ccccc1C(=O)Nc1ccc2c(c1)CCCN2C(=O)c1cccs1
15,> 30 min,CC1=C(C(=O)Nc2nncs2)C(c2nn(C)cc2Cl)N=C(Nc2nc3ccccc3o2)N1 (configuration not stated)
16,4.26 min,COc1cccc2nc(-c3cccs3)nc(NN3C(=O)C=C(C)C3=O)c12
17,12 min,Cc1ccc(-c2cc(C(=O)Nc3cccc(S(N)(=O)=O)c3)c3ccccc3n2)cc1C
18,> 30 min,Cc1ccc(-c2cc(C(=O)Nc3ccc(C#N)cc3)c3ccccc3n2)cc1C
19,5.5 min,COc1ccc(OC)c(-c2nnc3ccc(-c4ccc(OC)c(O[C@@H]5CCOC5)c4)nn23)c1
20,> 30 min,Cc1ccc(CNc2ccccc2C(=O)Nc2nc(-c3ccccc3)cs2)cc1
21,5.49 min,COc1ncccc1-c1cc2c(ccn2C(C)C)c(C(=O)NCc2c(C)cc(C)[nH]c2=O)n1
22,9.28 min,COc1ccc(-c2cc(-c3cccc4[nH]ncc34)cn3cncc23)cn1
23,3.32 min,CCOc1ccc(-c2nnc(SCC(=O)NCc3ccccc3Cl)o2)cc1
24,1.92 min,O=c1cc(-c2ccccc2)oc2cc(O)cc(O)c12
25,22 min,OCc1cccc(-c2cc(-c3cccnc3)c3cncn3c2)c1

row,half-life,SMILES
1,20.7 min,NC(=O)c1ccc(-c2ncc3cnc(-c4cccc(F)c4)cn23)cc1
2,> 30 min,COc1ccc(-c2nc(Nc3ccc(F)c(F)c3)c3ccccc3n2)cc1
3,5.48 min,CSc1ncc(Cl)c(C(=O)Nc2c(C)cccc2C)n1
4,6.7 min,Cc1cc(Nc2ccc(Br)c(C)c2)n2nc(C)nc2n1
5,2.62 min,NC(=O)C1CCN(c2nc(-c3ccc4ccccc4c3)cs2)CC1
6,> 30 min,COc1cccc(CNc2ccc(S(=O)(=O)Nc3ccc(N4CCNCC4)nc3)cc2)c1O
7,1.69 min,CSc1nnc2c3ccccc3n(CCc3ccccc3)c2n1
8,10.3 min,O=C(NC1CCCCC1)N1Cc2[nH]cnc2C[C@H]1c1nc(-c2cccc([N+](=O)[O-])c2)no1
9,2.28 min,CCOC(=O)c1c(C)c(-c2ccccc2)n(CC(=O)NCc2ccccc2)c1C
10,3.9 min,Cc1ccc(S(=O)(=O)Nc2ccccc2C(=O)Nc2nc(-c3ccccc3)co2)cc1
11,9.84 min,CC1=C(C(=O)Nc2ccc(Cl)cc2)C(c2ccccc2C)n2ncc(C(=O)Nc3ccc(C)cc3)c2N1 (configuration not stated)
12,7.13 min,CCc1ccccc1Nc1ncnc2c1cnn2-c1ccc(Cl)cc1
13,23 min,Fc1ccc(-c2ccc(Nc3nc(-c4ccncc4)nc4ccccc34)cc2F)c(F)c1
14,13.2 min,Cc1ccc(C(=O)Nc2ccc3oc(-c4cccnc4)nc3c2)cc1[N+](=O)[O-]
15,> 30 min,COc1cc(-c2ccnc3c2c(C)nn3-c2cccc(C(F)(F)F)c2)ccc1O
16,12 min,COc1ccnc(NC(=S)N2CCN(c3cccc(C(F)(F)F)n3)CC2)c1
17,1.55 min,COc1ccc(C)cc1Nc1c2c(nc3ccccc13)CCC2
18,1.74 min,c1ccc(Nc2cc3c(cn2)CN(Cc2ccsc2)CCN3)cc1
19,> 30 min,COc1c(Cl)cc2c([nH]c3cnccc32)c1NC(=O)c1cccnc1C
20,1.7 min,CCOc1ccc(CCNC(=O)c2cc3sccc3n2C(C)C)cc1OCC
21,18.6 min,COc1cccc(C(=O)Nc2nc(-c3nnn(-c4cccc(Cl)c4C)c3C)ns2)c1
22,4.5 min,Cc1ccc(-c2ccc(CNc3nc(-c4ccccc4C(C)C)ncc3F)cc2)cn1
23,4.18 min,CCOc1ccc(C2C(C(=O)Nc3ccccc3OC)=C(C)Nc3c(C(=O)Nc4cccc(C)c4)cnn32)cc1 (configuration not stated)
24,3.9 min,Cc1cnc(-c2ccccc2C(C)C)nc1NCC1CCN(c2cccnc2)CC1
25,> 30 min,COc1cccc(CNc2ccc(S(=O)(=O)Nc3nc4ccccc4[nH]3)cc2)c1O

row,half-life,SMILES
1,22.2 min,CC1=NN(c2ccc(C(=O)O)cc2)C(=O)/C1=C/c1ccc(-c2cc(C)c(C)cc2[N+](=O)[O-])o1
2,> 30 min,C#CCNC(=O)c1nc(-c2ccc([S+](C)(=O)[O-])cc2)c2cnccn12
3,> 30 min,CNS(=O)(=O)c1cc(-c2nn3c(C)nnc3c3ccccc23)ccc1C
4,> 30 min,Cc1cccc(C(=O)Nc2ccc(N3CCC(N4CCCCC4)CC3)c(C(=O)O)c2)c1
5,0.99 min,CCN(C(=O)C(NS(=O)(=O)c1ccc(Br)s1)c1ccccc1)c1ccc(C)c(C)c1 (configuration not stated)
6,27.3 min,COc1cccc(C(=O)Nc2ccc3c(N4CCOCC4)ncnc3c2)c1
7,> 30 min,O=C(NC1CC1)c1nc(-c2cccnc2)c2cnccn12
8,> 30 min,CNc1oc(-c2ccc(-c3ccccc3)cc2)nc1C#N
9,2.3 min,CC1(C)CC2CC(C)(CN2S(=O)(=O)c2ccc(C(=O)Nc3ccc(Cl)cc3)cc2)C1 (configuration not stated)
10,2.5 min,Cc1ccc(C(=O)[C@H]2CC[C@@H](C(=O)Nc3ccc(S(=O)(=O)Nc4nccs4)cc3)C2)cc1C
11,13 min,c1ccc2c(Nc3ccn[nH]3)nc(-c3ccncc3)nc2c1
12,18 min,COc1ccccc1C(=O)Nc1ccccc1C(=O)Nc1cccc(SC(F)(F)F)c1
13,2.8 min,CC(C)c1ccccc1-c1ncc(F)c(NCc2ccc(-c3cccnc3)s2)n1
14,7 min,O=C(CSc1ccccc1)Nc1nnc(COc2ccc(Cl)cc2)s1
15,> 30 min,O=C(Nc1ncc(Cc2cccc(C(F)(F)F)c2)s1)c1ccc(-c2cccc([N+](=O)[O-])c2)o1
16,2.2 min,Cc1cc(-c2nnc3n2CCCCC3)c(C)n1-c1ccc(Br)cc1
17,10.3 min,O=C(Nc1ccc(N2CCN(c3ncccc3C(F)(F)F)CC2)nc1)c1cccs1
18,15.5 min,COc1ccc2nc(C)cc(Nc3ccc(Cl)c(Cl)c3)c2c1
19,10 min,Cc1cnc(NC(=O)c2ccc(-c3cccc([N+](=O)[O-])c3)o2)s1
20,1.21 min,COc1ccccc1CN1CCNc2cc(Nc3ccccc3)ncc2C1
21,2.96 min,O=C1c2ccccc2C2=Nc3ccccc3SC(c3ccc(Cl)cc3)C12 (configuration not stated)
22,17.8 min,O=c1cc(/C=C/c2c(F)cccc2Cl)[nH]c2ccccc12
23,5.2 min,CCOC(=O)c1c(NC(=O)CN2CCCCC2)sc2c1CCN(C(=O)OCC)C2

row,SMILES,half-life
1,CC1Oc2cc3c(-c4c(O)cc(O)c5c(O)c6c(cc45)OC(C)C(C)C6=O)c(O)cc(O)c3c(O)c2C(=O)C1C (configuration not stated),> 30 min
2,COC(=O)c1ccc(O)c2ncc(N3CCN(C)CC3)cc12,4.16 min
3,Ic1ccccc1CNC1C2CCN(CC2)C1C(c1ccccc1)c1ccccc1 (configuration not stated),8.51 min
4,CC[C@H]1C=CC=CC[C@@H](C)[C@H](O)[C@@](C)(O)C(=O)[C@@H](C)[C@H](O)[C@@H](C)C(=O)[C@@H](C)[C@H](O)[C@@H](C)C=CC(=O)O[C@@H]2[C@@H](C)[C@H](CC1)O[C@]1(CC[C@H](C)[C@H](C[C@@H](C)O)O1)[C@H]2C,> 30 min
